Measurements as given in patent US20080004311A1, “HISTONE DEACETYLASE INHIBITORS FOR TREATING DEGENERATIVE DISEASES OF THE EYE” (ALCON, INC., priority 2002, published 2008).

Test system: cultured adult rat retinal ganglion cells (RGC)
Test: Survival of cultured adult rat retinal ganglion cells (RGC), Thy-1-positive healthy cell count
Type: cell-based
Conditions: Thy-1-positive healthy cells counted; for RGC survival against trophic factor withdrawal (TFW)-induced toxicity: bFGF, BDNF and CNTF removed from medium, cultured with compound for 3 days; for RGC survival against TNFα-induced toxicity / RGC survival against glutamate-induced toxicity: pre-treated 30 minutes; for RGC survival against TNFα-induced toxicity: then 10 ng/mL TNFα for 3 days; for RGC survival against glutamate-induced toxicity: then 100 μM glutamate for 3 days
Method: Culture of rat retinal ganglion cells (RGC) was performed as described in Pang et al. (Pang et al., 2007, BMC Neuroscience 8:11). Adult Sprague-Dawley rats were briefly euthanized by CO2 asphyxiation. Their eyes were enucleated and placed in the Neurobasal medium. The retina from each eye was detached and isolated. Retinal cells were dissociated by combining up to 20 retinas with 5 mL of papain solution, containing 10 mg papain, 2 mg DL-cysteine, and 2 mg bovine serum albumin in 5 ml of Neurobasal medium, for 25 min at 37° C., then washed 3 times with 5 mL RGC medium (Neurobasal medium with various nutrient supplements)+1% fetal calf serum. Retinal pieces were triturated by passing through a fire-polished disposable pipette several times until cells were dispersed. Cell suspension was placed onto of the poly-D-lysine- and laminin-coated 8-well chambered culture slide. The cells were then cultured in 95% air/5% CO2 at 37° C.
For glutamate-induced toxicity studies, cells were pre-treated with vehicle (cell media plus 0.1% DMSO) or the indicated compounds for 30 minutes, followed by 100 μM glutamate for 3 days. For TNFα-induced toxicity studies, cells were pre-treated with vehicle or the indicated compounds for 30 minutes, followed by 10 ng/mL TNFα for 3 days. For s trophic factor withdrawal (TFW) studies, three trophic factors, basic fibroblast growth factor, brain-derived neurotrophic factor, and ciliary neurotrophic factor, were removed from the culture medium. Cells were cultured in this medium with the indicated compounds for 3 days.
At the end of the incubation period, the cells were fixed and labeled for Thy-1, a RGC marker, by immunocytochemistry. Cell survival was quantified by manually counting Thy-1-positive healthy cells in each well. As shown by the data in FIGS. 1, 2, and 3, APHA-8 (Sigma, St. Louis, Mo.) and Scriptaid™ (Sigma, St. Louis, Mo.) were protective against glutamate-, tumor necrosis factor-alpha (TNFα)-, and trophic factor withdrawal (TFW)-induced toxicity.

O=C(CCCCCN1C(=O)c2cccc3cccc(c23)C1=O)NO [Scriptaid™, 6-(1,3-Dioxo-1H, 3H-benzo[de]isoquinolin-2-yl)-hexanoic acid hydroxyamide]
protective: RGC survival against trophic factor withdrawal (TFW)-induced toxicity | RGC survival against TNFα-induced toxicity | RGC survival against glutamate-induced toxicity

Cn1cc(C(=O)Cc2ccccc2)cc1C=CC(=O)NO [APHA-8, 3-(1-methyl-4-phenlyacetyl-1H-2-pyrrolyl)-N-hydroxy-2-propenamide]
protective: RGC survival against trophic factor withdrawal (TFW)-induced toxicity | RGC survival against TNFα-induced toxicity | RGC survival against glutamate-induced toxicity
